The values that follow are results of earlier work, collected in patent US20220241165A1, “ORAL CARE COMPOSITIONS COMPRISING OXALIC ACID” (The Procter & Gamble Company, priority 2021, published 2022).

In the case of `O=C(O)C(=O)O` [oxalate ion], the pKa (commonly the pH at which an ionisable group is half protonated) is reported as 4.1.
